Patent US20220389061A1, “IMMUNOMODULATORS” (priority 2019, published 2022)
pIC50: −log10 of the molar value. Like-named read-outs stand apart in the source and are kept apart here. Starred links: 1 amine or outer side, 2 acyl side, 3 side chain; linkers in the order of their positions; H or OH if unused. Positions of bridges follow the written chain, without caps; N, C: chain ends. Non-standard residues stand in square brackets, D forms with d. Residues, ends and D or L forms follow the SMILES beside them. Groups on a side chain read outwards from the residue. *: point of attachment. Trp(1-CH2CO2Me) = COC(=O)Cn1cc(C[C@H](N)C(=O)O)c2ccccc21; Trp(1-CH2COOH) = N[C@@H](Cc1cn(CC(=O)O)c2ccccc12)C(=O)O; Benzofuran(2-CO) = O=C(c1cc2ccccc2o1)*; X23 = COc1cc(NC(=S)*)ccc1-n1cnc(Cl)c1; X49 = N#Cc1ccccc1NC(=N)c1ccccc1N*; Hyp = O=C(O)[C@@H]1C[C@@H](O)CN1; X34 = O=C(c1c2ccccc2cc2ccccc12)*; X56 = COc1cc([N+](=O)[O-])ccc1N*; X53 = Cc1nc(-c2cccnc2)sc1C(=O)*; X91 = Cc1cc(NC(=S)*)c2ccccc2n1; X60 = Cc1cc2cc(NC(=S)*)ccc2o1; NMeNle = CCCC[C@H](NC)C(=O)O; X9 = Fc1ccc(NC(=S)*)c(Cl)c1; X5 = S=C(Nc1cccc2ccccc12)*; X86 = CCOc1ccc(NC(=S)*)cc1; X74 = Cc1cc(C)c(N*)c(C)c1; NMeA = CN[C@@H](C)C(=O)O; X71 = c1cc2c(cc1N*)OCCO2; Dab = NCC[C@H](N)C(=O)O; Dap = NC[C@H](N)C(=O)O; CO = O=C([*:1])[*:2]

Target: T1, PD-1/PD-L1 (Homo sapiens, UniProt Q9NZQ7)
T1 construct: TVMV protease site linker (C); made in house; host or cells: HEK293T cells
Assay: PD-1/PD-L1 Homogenous Time-Resolved Fluorescence (HTRF) binding assay
Method in brief: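 HTRF read-out using europium cryptate anti-Ig (1 nM) and APC anti-His (20 nM) on extracellular-domain fusion proteins in dPBS/0.1% BSA/0.05% Tween-20. Inhibitor first incubated 15 min with 10 nM PD-L1-His, followed by 20 nM PD-1-Ig for another 15 min.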

[1] = PD-L1-His 10 nM pre-incubated with inhibitor, PD-1-Ig 20 nM, read-out: HTRF IC50

T1 sequence (Q9NZQ7 18-239): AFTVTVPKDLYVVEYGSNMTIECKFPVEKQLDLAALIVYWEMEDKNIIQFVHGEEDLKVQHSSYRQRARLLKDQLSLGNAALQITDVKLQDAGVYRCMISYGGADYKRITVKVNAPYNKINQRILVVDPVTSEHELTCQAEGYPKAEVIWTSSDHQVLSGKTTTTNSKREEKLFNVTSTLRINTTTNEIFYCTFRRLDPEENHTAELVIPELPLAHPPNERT

SMILES | pIC50 [1] | pIC50
CCCC[C@H]1C(=O)N(C)[C@@H](CCCC)C(=O)N[C@@H](CC(C)C)C(=O)N[C@H](C(=O)NCC(N)=O)CSCC(=O)N[C@@H](Cc2ccc(O)cc2)C(=O)N(C)[C@@H](C)C(=O)N[C@@H](CC(N)=O)C(=O)N2CCC[C@H]2C(=O)N[C@@H](CNC(=O)Nc2ccccc2C(=N)Nc2ccccc2C#N)C(=O)N[C@@H](CC(C)C)C(=O)N2C[C@H](O)C[C@H]2C(=O)N[C@@H](Cc2c[nH]c3ccccc23)C(=O)N[C@@H](CCNC(=O)Nc2ccccc2C(=N)Nc2ccccc2C#N)C(=O)N[C@@H](Cc2cn(CC(=O)O)c3ccccc23)C(=O)N1C [Example 1087] ({CH2CO}-Y[NMeA]NP[Dap]([CO-X49])L[Hyp]W[Dab]([CO-X49])[Trp(1-CH2COOH)][NMeNle][NMeNle]LCG-NH2; thioether N-14) | 8.59 | –
CCCC[C@H]1C(=O)N(C)[C@@H](CCCC)C(=O)N[C@@H](CC(C)C)C(=O)N[C@H](C(=O)NCC(N)=O)CSCC(=O)N[C@@H](Cc2ccc(O)cc2)C(=O)N(C)[C@@H](C)C(=O)N[C@@H](CC(N)=O)C(=O)N2CCC[C@H]2C(=O)N[C@@H](CNC(=O)Nc2ccc3c(c2)OCCO3)C(=O)N[C@@H](CC(C)C)C(=O)N2C[C@H](O)C[C@H]2C(=O)N[C@@H](Cc2c[nH]c3ccccc23)C(=O)N[C@@H](CCN)C(=O)N[C@@H](Cc2cn(CC(=O)O)c3ccccc23)C(=O)N1C [Example 3042] ({CH2CO}-Y[NMeA]NP[Dap]([CO-X71])L[Hyp]W[Dab][Trp(1-CH2COOH)][NMeNle][NMeNle]LCG-NH2; thioether N-14) | 8.60 | –
CCCC[C@H]1C(=O)N(C)[C@@H](CCCC)C(=O)N[C@@H](CC(C)C)C(=O)N[C@H](C(=O)NCC(N)=O)CSCC(=O)N[C@@H](Cc2ccc(O)cc2)C(=O)N(C)[C@@H](C)C(=O)N[C@@H](CC(N)=O)C(=O)N2CCC[C@H]2C(=O)N[C@@H](CNC(=O)Nc2c(C)cc(C)cc2C)C(=O)N[C@@H](CC(C)C)C(=O)N2C[C@H](O)C[C@H]2C(=O)N[C@@H](Cc2c[nH]c3ccccc23)C(=O)N[C@@H](CCNC(=O)Nc2c(C)cc(C)cc2C)C(=O)N[C@@H](Cc2cn(CC(=O)O)c3ccccc23)C(=O)N1C [Example 1081] ({CH2CO}-Y[NMeA]NP[Dap]([CO-X74])L[Hyp]W[Dab]([CO-X74])[Trp(1-CH2COOH)][NMeNle][NMeNle]LCG-NH2; thioether N-14) | 8.57 | –
CCCC[C@H]1C(=O)N(C)[C@@H](CCCC)C(=O)N[C@@H](CC(C)C)C(=O)N[C@H](C(=O)NCC(N)=O)CSCC(=O)N[C@@H](Cc2ccc(O)cc2)C(=O)N(C)[C@@H](C)C(=O)N[C@@H](CC(N)=O)C(=O)N2CCC[C@H]2C(=O)N[C@@H](CNC(=O)Nc2ccc([N+](=O)[O-])cc2OC)C(=O)N[C@@H](CC(C)C)C(=O)N2C[C@H](O)C[C@H]2C(=O)N[C@@H](Cc2c[nH]c3ccccc23)C(=O)N[C@@H](CCNC(=O)Nc2ccc([N+](=O)[O-])cc2OC)C(=O)N[C@@H](Cc2cn(CC(=O)O)c3ccccc23)C(=O)N1C [Example 1076] ({CH2CO}-Y[NMeA]NP[Dap]([CO-X56])L[Hyp]W[Dab]([CO-X56])[Trp(1-CH2COOH)][NMeNle][NMeNle]LCG-NH2; thioether N-14) | – | 8.09
CCCC[C@H]1C(=O)N(C)[C@@H](CCCC)C(=O)N[C@@H](CC(C)C)C(=O)N[C@H](C(=O)NCC(N)=O)CSCC(=O)N[C@@H](Cc2ccc(O)cc2)C(=O)N(C)[C@@H](C)C(=O)N[C@@H](CC(N)=O)C(=O)N2CCC[C@H]2C(=O)N[C@@H](CNC(=O)c2sc(-c3cccnc3)nc2C)C(=O)N[C@@H](CC(C)C)C(=O)N2C[C@H](O)C[C@H]2C(=O)N[C@@H](Cc2c[nH]c3ccccc23)C(=O)N[C@@H](CCNC(=O)c2sc(-c3cccnc3)nc2C)C(=O)N[C@@H](Cc2cn(CC(=O)OC)c3ccccc23)C(=O)N1C [Example 1008] ({CH2CO}-Y[NMeA]NP[Dap](X53)L[Hyp]W[Dab](X53)[Trp(1-CH2CO2Me)][NMeNle][NMeNle]LCG-NH2; thioether N-14) | 8.12 | –
CCCC[C@H]1C(=O)N(C)[C@@H](CCCC)C(=O)N[C@@H](CC(C)C)C(=O)N[C@H](C(=O)NCC(N)=O)CSCC(=O)N[C@@H](Cc2ccc(O)cc2)C(=O)N(C)[C@@H](C)C(=O)N[C@@H](CC(N)=O)C(=O)N2CCC[C@H]2C(=O)N[C@@H](CNC(=O)c2c3ccccc3cc3ccccc23)C(=O)N[C@@H](CC(C)C)C(=O)N2C[C@H](O)C[C@H]2C(=O)N[C@@H](Cc2c[nH]c3ccccc23)C(=O)N[C@@H](CCNC(=O)c2c3ccccc3cc3ccccc23)C(=O)N[C@@H](Cc2cn(CC(=O)O)c3ccccc23)C(=O)N1C [Example 2011] ({CH2CO}-Y[NMeA]NP[Dap](X34)L[Hyp]W[Dab](X34)[Trp(1-CH2COOH)][NMeNle][NMeNle]LCG-NH2; thioether N-14) | 8.33 | –

Continued, in another order:

pIC50 [1] | SMILES | pIC50
8.49 | CCCC[C@H]1C(=O)N(C)[C@@H](CCCC)C(=O)N[C@@H](CC(C)C)C(=O)N[C@H](C(=O)NCC(N)=O)CSCC(=O)N[C@@H](Cc2ccc(O)cc2)C(=O)N(C)[C@@H](C)C(=O)N[C@@H](CC(N)=O)C(=O)N2CCC[C@H]2C(=O)N[C@@H](CNC(=O)c2cc3ccccc3o2)C(=O)N[C@@H](CC(C)C)C(=O)N2C[C@H](O)C[C@H]2C(=O)N[C@@H](Cc2c[nH]c3ccccc23)C(=O)N[C@@H](CCN)C(=O)N[C@@H](Cc2cn(CC(=O)O)c3ccccc23)C(=O)N1C [Example 3034] ({CH2CO}-Y[NMeA]NP[Dap](Benzofuran(2-CO))L[Hyp]W[Dab][Trp(1-CH2COOH)][NMeNle][NMeNle]LCG-NH2; thioether N-14) | –
8.46 | CCCC[C@H]1C(=O)N(C)[C@@H](CCCC)C(=O)N[C@@H](CC(C)C)C(=O)N[C@H](C(=O)NCC(N)=O)CSCC(=O)N[C@@H](Cc2ccc(O)cc2)C(=O)N(C)[C@@H](C)C(=O)N[C@@H](CC(N)=O)C(=O)N2CCC[C@H]2C(=O)N[C@@H](CNC(=S)Nc2ccc(-n3cnc(Cl)c3)c(OC)c2)C(=O)N[C@@H](CC(C)C)C(=O)N2C[C@H](O)C[C@H]2C(=O)N[C@@H](Cc2c[nH]c3ccccc23)C(=O)N[C@@H](CCN)C(=O)N[C@@H](Cc2cn(CC(=O)O)c3ccccc23)C(=O)N1C [Example 1059] ({CH2CO}-Y[NMeA]NP[Dap](X23)L[Hyp]W[Dab][Trp(1-CH2COOH)][NMeNle][NMeNle]LCG-NH2; thioether N-14) | –
8.47 | CCCC[C@H]1C(=O)N(C)[C@@H](CCCC)C(=O)N[C@@H](CC(C)C)C(=O)N[C@H](C(=O)NCC(N)=O)CSCC(=O)N[C@@H](Cc2ccc(O)cc2)C(=O)N(C)[C@@H](C)C(=O)N[C@@H](CC(N)=O)C(=O)N2CCC[C@H]2C(=O)N[C@@H](CNC(=S)Nc2cc(C)nc3ccccc23)C(=O)N[C@@H](CC(C)C)C(=O)N2C[C@H](O)C[C@H]2C(=O)N[C@@H](Cc2c[nH]c3ccccc23)C(=O)N[C@@H](CCN)C(=O)N[C@@H](Cc2cn(CC(=O)O)c3ccccc23)C(=O)N1C [Example 3053] ({CH2CO}-Y[NMeA]NP[Dap](X91)L[Hyp]W[Dab][Trp(1-CH2COOH)][NMeNle][NMeNle]LCG-NH2; thioether N-14) | –
8.43 | CCCC[C@H]1C(=O)N(C)[C@@H](CCCC)C(=O)N[C@@H](CC(C)C)C(=O)N[C@H](C(=O)NCC(N)=O)CSCC(=O)N[C@@H](Cc2ccc(O)cc2)C(=O)N(C)[C@@H](C)C(=O)N[C@@H](CC(N)=O)C(=O)N2CCC[C@H]2C(=O)N[C@@H](CNC(=S)Nc2ccc(OCC)cc2)C(=O)N[C@@H](CC(C)C)C(=O)N2C[C@H](O)C[C@H]2C(=O)N[C@@H](Cc2c[nH]c3ccccc23)C(=O)N[C@@H](CCNC(=S)Nc2ccc(OCC)cc2)C(=O)N[C@@H](Cc2cn(CC(=O)O)c3ccccc23)C(=O)N1C [Example 1027] ({CH2CO}-Y[NMeA]NP[Dap](X86)L[Hyp]W[Dab](X86)[Trp(1-CH2COOH)][NMeNle][NMeNle]LCG-NH2; thioether N-14) | –
8.55 | CCCC[C@H]1C(=O)N(C)[C@@H](CCCC)C(=O)N[C@@H](CC(C)C)C(=O)N[C@H](C(=O)NCC(N)=O)CSCC(=O)N[C@@H](Cc2ccc(O)cc2)C(=O)N(C)[C@@H](C)C(=O)N[C@@H](CC(N)=O)C(=O)N2CCC[C@H]2C(=O)N[C@@H](CNC(=S)Nc2ccc(F)cc2Cl)C(=O)N[C@@H](CC(C)C)C(=O)N2C[C@H](O)C[C@H]2C(=O)N[C@@H](Cc2c[nH]c3ccccc23)C(=O)N[C@@H](CCNC(=S)Nc2ccc(F)cc2Cl)C(=O)N[C@@H](Cc2cn(CC(=O)O)c3ccccc23)C(=O)N1C [Example 1031] ({CH2CO}-Y[NMeA]NP[Dap](X9)L[Hyp]W[Dab](X9)[Trp(1-CH2COOH)][NMeNle][NMeNle]LCG-NH2; thioether N-14) | –
8.55 | CCCC[C@H]1C(=O)N(C)[C@@H](CCCC)C(=O)N[C@@H](CC(C)C)C(=O)N[C@H](C(=O)NCC(N)=O)CSCC(=O)N[C@@H](Cc2ccc(O)cc2)C(=O)N(C)[C@@H](C)C(=O)N[C@@H](CC(N)=O)C(=O)N2CCC[C@H]2C(=O)N[C@@H](CNC(=S)Nc2ccc3oc(C)cc3c2)C(=O)N[C@@H](CC(C)C)C(=O)N2C[C@H](O)C[C@H]2C(=O)N[C@@H](Cc2c[nH]c3ccccc23)C(=O)N[C@@H](CCN)C(=O)N[C@@H](Cc2cn(CC(=O)O)c3ccccc23)C(=O)N1C [Example 3055] ({CH2CO}-Y[NMeA]NP[Dap](X60)L[Hyp]W[Dab][Trp(1-CH2COOH)][NMeNle][NMeNle]LCG-NH2; thioether N-14) | –
8.82 | CCCC[C@H]1C(=O)N(C)[C@@H](CCCC)C(=O)N[C@@H](CC(C)C)C(=O)N[C@H](C(=O)NCC(N)=O)CSCC(=O)N[C@@H](Cc2ccc(O)cc2)C(=O)N(C)[C@@H](C)C(=O)N[C@@H](CC(N)=O)C(=O)N2CCC[C@H]2C(=O)N[C@@H](CNC(=S)Nc2cccc3ccccc23)C(=O)N[C@@H](CC(C)C)C(=O)N2C[C@H](O)C[C@H]2C(=O)N[C@@H](Cc2c[nH]c3ccccc23)C(=O)N[C@@H](CCNC(=S)Nc2cccc3ccccc23)C(=O)N[C@@H](Cc2cn(CC(=O)O)c3ccccc23)C(=O)N1C [Example 3033] ({CH2CO}-Y[NMeA]NP[Dap](X5)L[Hyp]W[Dab](X5)[Trp(1-CH2COOH)][NMeNle][NMeNle]LCG-NH2; thioether N-14) | –
